Measurements: patent US11572590B2, “Methods for evaluating tumor cell spheroids using 3D microfluidic cell culture device” (Dana-Farber Cancer Institute, Inc., priority 2017, dated 2023)
Where two headings read alike, the source gives them in different places.

Experiments:
Test in all cases: SelectScreen Kinase Profiling, single point inhibition and IC50 for off-target kinases
Assay type in all cases: biochemical
off-target kinases [1] = target: off-target kinases (Homo sapiens, UniProt Q13557); details: CAMK2D (CaMKII delta), ZLYTE, ATP Km app
off-target kinases (Homo sapiens, UniProt Q13557), sequence (Q13557 whole entry): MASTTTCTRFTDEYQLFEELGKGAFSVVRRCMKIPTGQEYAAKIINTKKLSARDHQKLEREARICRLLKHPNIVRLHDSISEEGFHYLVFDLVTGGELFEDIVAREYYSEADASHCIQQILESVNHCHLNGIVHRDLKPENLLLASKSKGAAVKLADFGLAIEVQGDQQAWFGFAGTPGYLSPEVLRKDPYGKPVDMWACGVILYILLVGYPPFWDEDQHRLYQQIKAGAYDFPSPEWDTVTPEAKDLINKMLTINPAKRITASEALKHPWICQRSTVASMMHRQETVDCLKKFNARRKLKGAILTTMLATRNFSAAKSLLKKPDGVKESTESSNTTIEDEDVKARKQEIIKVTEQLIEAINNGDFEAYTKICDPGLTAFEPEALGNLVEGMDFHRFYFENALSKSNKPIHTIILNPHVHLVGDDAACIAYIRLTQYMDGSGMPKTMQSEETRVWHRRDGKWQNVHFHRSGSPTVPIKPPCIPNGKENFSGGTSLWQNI

off-target kinases [2] = target: off-target kinases (Homo sapiens, UniProt Q9UEW8); details: STK39 (STLK3), LanthaScreen
off-target kinases [3] = target: T1, off-target kinases (Homo sapiens, UniProt Q9UKI8); details: TLK1, LanthaScreen Binding
T1 sequence (Q9UKI8 1-766): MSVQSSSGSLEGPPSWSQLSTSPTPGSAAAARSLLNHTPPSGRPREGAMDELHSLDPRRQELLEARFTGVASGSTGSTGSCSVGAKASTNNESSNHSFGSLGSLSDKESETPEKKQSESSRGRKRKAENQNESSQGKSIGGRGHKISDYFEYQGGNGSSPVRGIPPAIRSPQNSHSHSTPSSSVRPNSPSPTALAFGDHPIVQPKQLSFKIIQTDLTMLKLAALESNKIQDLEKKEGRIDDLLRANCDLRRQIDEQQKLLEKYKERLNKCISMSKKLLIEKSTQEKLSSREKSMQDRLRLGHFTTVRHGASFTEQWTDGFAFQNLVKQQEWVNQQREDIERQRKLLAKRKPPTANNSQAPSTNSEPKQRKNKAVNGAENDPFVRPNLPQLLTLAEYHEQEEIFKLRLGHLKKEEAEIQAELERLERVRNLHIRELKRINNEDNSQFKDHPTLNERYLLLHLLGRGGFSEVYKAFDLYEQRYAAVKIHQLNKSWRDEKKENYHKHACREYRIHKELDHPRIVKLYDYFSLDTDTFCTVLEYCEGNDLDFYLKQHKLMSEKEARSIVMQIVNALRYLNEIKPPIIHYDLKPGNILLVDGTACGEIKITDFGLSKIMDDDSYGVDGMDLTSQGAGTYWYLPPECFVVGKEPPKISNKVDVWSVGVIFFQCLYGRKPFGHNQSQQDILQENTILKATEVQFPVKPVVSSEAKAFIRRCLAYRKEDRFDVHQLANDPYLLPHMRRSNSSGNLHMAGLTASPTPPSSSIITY

off-target kinases [4] = target: off-target kinases (Homo sapiens, UniProt Q05655); details: PRKCD (PKC delta), ZLYTE, ATP Km app
off-target kinases (Homo sapiens, UniProt Q05655), sequence (Q05655 whole entry): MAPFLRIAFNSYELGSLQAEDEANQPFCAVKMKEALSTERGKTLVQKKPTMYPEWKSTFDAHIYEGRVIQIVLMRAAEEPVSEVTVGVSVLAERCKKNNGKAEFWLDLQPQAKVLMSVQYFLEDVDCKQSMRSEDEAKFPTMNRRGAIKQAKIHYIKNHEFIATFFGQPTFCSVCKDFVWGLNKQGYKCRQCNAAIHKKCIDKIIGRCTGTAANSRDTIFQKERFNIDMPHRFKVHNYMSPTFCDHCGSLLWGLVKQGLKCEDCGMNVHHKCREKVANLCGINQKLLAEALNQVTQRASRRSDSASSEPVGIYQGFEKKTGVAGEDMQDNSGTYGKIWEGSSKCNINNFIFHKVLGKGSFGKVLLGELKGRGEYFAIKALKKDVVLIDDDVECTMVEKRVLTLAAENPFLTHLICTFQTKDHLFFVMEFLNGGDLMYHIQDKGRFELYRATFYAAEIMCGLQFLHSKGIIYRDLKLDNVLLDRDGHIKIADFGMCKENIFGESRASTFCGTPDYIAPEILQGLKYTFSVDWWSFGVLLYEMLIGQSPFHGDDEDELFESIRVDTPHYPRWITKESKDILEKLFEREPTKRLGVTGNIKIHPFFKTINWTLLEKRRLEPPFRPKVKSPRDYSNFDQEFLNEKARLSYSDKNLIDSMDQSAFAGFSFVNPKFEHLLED

off-target kinases [5] = target: off-target kinases (Homo sapiens, UniProt Q02763, R849W); details: TEK (TIE2) R849W, mutant y, LanthaScreen Binding
off-target kinases (Homo sapiens, UniProt Q02763, R849W), sequence (Q02763 23-1124 R849W): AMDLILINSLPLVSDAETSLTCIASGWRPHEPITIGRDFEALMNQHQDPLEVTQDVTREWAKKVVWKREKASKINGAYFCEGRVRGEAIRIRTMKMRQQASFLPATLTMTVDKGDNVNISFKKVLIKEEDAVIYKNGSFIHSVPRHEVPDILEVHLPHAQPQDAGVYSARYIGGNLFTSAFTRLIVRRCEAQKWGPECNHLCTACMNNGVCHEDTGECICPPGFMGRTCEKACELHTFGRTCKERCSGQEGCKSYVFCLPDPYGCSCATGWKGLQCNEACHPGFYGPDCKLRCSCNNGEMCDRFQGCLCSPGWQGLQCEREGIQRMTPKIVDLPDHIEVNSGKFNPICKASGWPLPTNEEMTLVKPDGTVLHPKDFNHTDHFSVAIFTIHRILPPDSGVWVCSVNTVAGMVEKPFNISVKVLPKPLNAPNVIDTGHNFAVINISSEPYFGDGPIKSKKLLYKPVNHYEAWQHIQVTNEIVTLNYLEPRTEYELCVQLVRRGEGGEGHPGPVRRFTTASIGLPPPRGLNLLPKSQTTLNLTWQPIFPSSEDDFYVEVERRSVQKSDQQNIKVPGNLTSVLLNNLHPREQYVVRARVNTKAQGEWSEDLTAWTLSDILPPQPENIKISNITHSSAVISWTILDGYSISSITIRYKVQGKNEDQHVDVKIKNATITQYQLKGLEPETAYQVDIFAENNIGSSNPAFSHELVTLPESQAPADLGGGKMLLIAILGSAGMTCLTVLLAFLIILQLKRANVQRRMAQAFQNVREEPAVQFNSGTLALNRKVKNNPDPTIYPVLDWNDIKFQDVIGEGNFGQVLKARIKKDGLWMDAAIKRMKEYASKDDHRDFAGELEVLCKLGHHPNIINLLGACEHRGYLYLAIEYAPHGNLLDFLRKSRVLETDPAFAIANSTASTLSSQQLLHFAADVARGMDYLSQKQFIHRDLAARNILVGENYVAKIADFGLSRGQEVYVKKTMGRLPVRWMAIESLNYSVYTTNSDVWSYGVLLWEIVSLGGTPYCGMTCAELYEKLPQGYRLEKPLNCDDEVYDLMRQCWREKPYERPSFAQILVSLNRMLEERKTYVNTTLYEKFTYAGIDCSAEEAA

off-target kinases [6] = target: off-target kinases (Homo sapiens, UniProt P22607, K650M); details: FGFR3 K650M, mutant y, LanthaScreen Binding
off-target kinases (Homo sapiens, UniProt P22607, K650M), sequence (P22607 23-806 K650M): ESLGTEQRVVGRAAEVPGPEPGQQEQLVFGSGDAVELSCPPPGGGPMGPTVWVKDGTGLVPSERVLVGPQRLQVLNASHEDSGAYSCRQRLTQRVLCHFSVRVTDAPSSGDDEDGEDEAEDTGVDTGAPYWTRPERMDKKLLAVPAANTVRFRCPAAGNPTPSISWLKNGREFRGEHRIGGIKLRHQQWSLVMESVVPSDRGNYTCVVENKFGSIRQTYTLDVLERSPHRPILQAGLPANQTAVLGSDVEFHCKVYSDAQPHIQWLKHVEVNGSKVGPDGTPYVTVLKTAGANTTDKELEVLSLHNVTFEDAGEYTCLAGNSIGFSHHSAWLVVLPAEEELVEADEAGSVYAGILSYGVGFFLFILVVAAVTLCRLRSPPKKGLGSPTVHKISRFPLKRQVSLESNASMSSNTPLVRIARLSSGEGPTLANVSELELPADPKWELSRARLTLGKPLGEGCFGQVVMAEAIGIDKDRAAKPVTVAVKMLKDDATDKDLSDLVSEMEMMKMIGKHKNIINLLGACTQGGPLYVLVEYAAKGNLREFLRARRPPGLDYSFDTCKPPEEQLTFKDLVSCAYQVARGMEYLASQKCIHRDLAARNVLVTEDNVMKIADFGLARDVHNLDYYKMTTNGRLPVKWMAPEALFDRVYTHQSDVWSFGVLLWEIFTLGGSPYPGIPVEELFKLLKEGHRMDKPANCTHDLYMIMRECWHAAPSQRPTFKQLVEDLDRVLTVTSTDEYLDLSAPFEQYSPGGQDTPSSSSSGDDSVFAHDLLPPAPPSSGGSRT

In the case of `N#Cc1cc(-c2ncnc(Nc3ccc(N4CCN(C5COC5)CC4)cc3)n2)ccc1OC1CCOCC1` [Compound 1, 5-(4-((4-(4-(oxetan-3-yl)piperazin-1-yl)phenyl)amino)-1,3,5-triazin-2-yl)-2-((tetrahydro-2H-pyran-4-yl)oxy)benzonitrile], the inhibition (off-target kinases [1]; read-out: % Inhibition 1) is reported as 18%, the inhibition (off-target kinases [1]; read-out: % Inhibition 2) is reported as 19% and the inhibition (off-target kinases [1]; read-out: % Inhibition Avg) is reported as 19%. It also gave an inhibition (off-target kinases [2]; read-out: % Inhibition 1) of 10%, an inhibition (off-target kinases [2]; read-out: % Inhibition 2) of 9% and an inhibition (off-target kinases [2]; read-out: % Inhibition Avg) of 10%. It also gave an inhibition (off-target kinases [3]; read-out: % Inhibition 1) of 13%, an inhibition (off-target kinases [3]; read-out: % Inhibition 2) of 17% and an inhibition (off-target kinases [3]; read-out: % Inhibition Avg) of 15%. It also gave an inhibition (off-target kinases [4]; read-out: % Inhibition 1) of 4%, an inhibition (off-target kinases [4]; read-out: % Inhibition 2) of -4% and an inhibition (off-target kinases [4]; read-out: % Inhibition Avg) of 0%. It also gave an inhibition (off-target kinases [5]; read-out: % Inhibition 1) of 40%, an inhibition (off-target kinases [5]; read-out: % Inhibition 2) of 41% and an inhibition (off-target kinases [5]; read-out: % Inhibition Avg) of 41%. It also gave an inhibition (off-target kinases [6]; read-out: % Inhibition 1) of 33%, an inhibition (off-target kinases [6]; read-out: % Inhibition 2) of 38% and an inhibition (off-target kinases [6]; read-out: % Inhibition Avg) of 35%.
